# Patent US6713499B2, “7-Amino-benzothiazole derivatives” (Hoffman-La Roche Inc., priority 2001, dated 2004)
# Biological target: T1, human adenosine A2A receptor (Homo sapiens, UniProt P29274)
# T1 construct: expressed in transfected cells; host or cells: CHO cells, Semliki Forest virus expression system; washed membrane pellet used
# Assay: [3H]-SCH-58261 binding assay on membranes of CHO cells expressing the human adenosine A2A receptor
# Settings: [3H]-SCH-58261 (1 nM) displacement, CHO cell membranes, SPA beads, 1 hour at room temperature; Ki by Cheng-Prussoff equation
# Protocol: Human Adenosine A2A Receptor
# The human adenosine A2A receptor was recombinantly expressed in chinese hamster ovary (CHO) cells using the semliki forest virus expression system. Cells were harvested, washed twice by centrifugation, homogenised and again washed by centrifugation. The final washed membrane pellet was suspended in a Tris (50 mM) buffer containing 120 mM NaCl, 5 mM KCl, 2 mM CaCl2 and 10 mM MgCl2 (pH 7.4) (buffer A). The [3H]-SCH-58261 (Dionisotti et al., 1997, Br J Pharmacol 121, 353; 1 nM) binding assay was carried out in 96-well plates in the presence of 2.5 μg of membrane protein, 0.5 mg of Ysi-poly-1-lysine SPA beads and 0.1 U adenosine deaminase in a final volume of 200 μl of buffer A. Non-specific binding was defined using xanthine amine congener (XAC; 2 μM). Compounds were tested at 10 concentrations from 10 μM-0.3 nM. All assays were conducted in duplicate and repeated at least two times. Assay plates were incubated for 1 hour at room temperature before centrifugation and then bound ligand determined using a Packard Topcount scintillation counter. IC50 values were calculated using a non-linear curve fitting program and Ki values calculated using, the Cheng-Prussoff equation.
# T1 sequence (P29274 whole entry): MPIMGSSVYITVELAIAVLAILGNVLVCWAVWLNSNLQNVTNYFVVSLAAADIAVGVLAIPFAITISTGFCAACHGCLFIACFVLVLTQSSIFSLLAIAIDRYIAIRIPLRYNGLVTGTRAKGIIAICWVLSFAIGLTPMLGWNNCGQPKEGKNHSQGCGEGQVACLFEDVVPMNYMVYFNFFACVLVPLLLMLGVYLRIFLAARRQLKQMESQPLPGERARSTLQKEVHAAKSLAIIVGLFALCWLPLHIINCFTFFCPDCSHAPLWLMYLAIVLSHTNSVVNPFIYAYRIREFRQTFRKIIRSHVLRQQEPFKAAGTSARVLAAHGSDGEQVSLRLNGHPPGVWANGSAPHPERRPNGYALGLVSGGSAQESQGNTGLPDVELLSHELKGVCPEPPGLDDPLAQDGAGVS
row,SMILES,hA2 (pKi)
1,"COc1ccc(N(C)C2CCOCC2)c2sc(NC(=O)c3ccnc(N4CCOCC4)c3)nc12 [Example 38, N-{4-Methoxy-4-[methyl-(tetrahydro-pyran-4-yl)-amino]-benzothiazol-2-yl}-2-morpholin-4-yl-isonicotinamide]",7.33

# Same assay, conditions: [3H]-SCH-58261 (1 nM) displacement, CHO cell membranes, SPA beads, 1 hour at room temperature; Ki by Cheng-Prussoff equation; read-out: hA2 (pKi) (converted)
row,SMILES,Ki [nM]
1,"COc1ccc(N(Cc2ccccc2)C(C)=O)c2sc(NC(=O)c3ccc(F)cc3)nc12 [Example 24, N-[7-(Acetyl-benzyl-amino)-4-methoxy-benzothiazol-2-yl]-4-fluoro-benzamide]",10.7
2,"COc1ccc(N(C)Cc2ccccc2)c2sc(NC(=O)c3ccnc(C)c3)nc12 [Example 16, N-[7-(Benzyl-methyl-amino)-4-methoxy-benzothiazol-2-yl]-2-methyl-isonicotinamide]",15.5
3,"COc1ccc(N(C)Cc2ccccc2)c2sc(NC(=O)c3ccnc(N4CCOCC4)c3)nc12 [Example 35, N-[7-(Benzyl-methyl-amino)-4-methoxy-benzothiazol-2-yl]-2-morpholin-4-yl-isonicotinamide]",11
4,"COc1ccc(CN(C)c2ccc(OC)c3nc(NC(=O)c4ccc(F)cc4)sc23)cc1 [Example 28, 4-Fluoro-N-{4-methoxy-7-[(4-methoxy-benzyl)-methyl-amino]-benzothiazol-2-yl}-benzamide]",49
5,"COCCN(C)c1ccc(OC)c2nc(NC(=O)c3ccc(CCl)cc3)sc12 [Example 3, 4-Chloromethyl-N-{4-methoxy-7-[(2-methoxy-ethyl)-methyl-amino]-benzothiazol-2-yl}-benzamide]",37.2
6,"COCCN(C)c1ccc(OC)c2nc(NC(=O)c3ccnc(N4CCOCC4)c3)sc12 [Example 6, N-{4-Methoxy-7-[(2-methoxy-ethyl)-methyl-amino]-benzothiazol-2-yl}-2-morpholin-4-yl-isonicotinamide]",52.5
7,"COc1ccc(N(C)Cc2ccccc2)c2sc(NC(=O)c3ccc(F)cc3)nc12 [Example 14, N-[7-(Benzyl-methyl-amino)-4-methoxy-benzothiazol-2-yl]-4-fluoro-benzamide]",38.9
8,"COc1ccc(N(C)C(C)=O)c2sc(NC(=O)c3ccc(F)cc3)nc12 [Example 19, N-[7-(Acetyl-methyl-amino)-4-methoxy-benzothiazol-2-yl]-4-fluoro-benzamide]",13.2
9,"COc1ccc(N(C)Cc2ccccc2)c2sc(NC(=O)c3ccnc(Br)c3)nc12 [Example 32, N-[7-(Benzyl-methyl-amino)-4-methoxy-benzothiazol-2-yl]-2-bromo-isonicotinamide]",33.1
10,"COc1ccc(N(Cc2ccc(C)cc2)C(C)=O)c2sc(NC(=O)c3ccccc3)nc12 [Example 10, N-{7-[Acetyl-(4-methyl-benzyl)-amino]-4-methoxy-benzothiazol-2-yl}-benzamide]",11.5
11,"COc1ccc(N(C)CC(=O)N(C)C)c2sc(NC(=O)c3ccc(F)cc3)nc12 [Example 17, N-[7-(Dimethylcarbamoylmethyl-methyl-amino)-4-methoxy-benzothiazol-2-yl]-4-fluoro-benzamide]",60.3
12,"CCN(CC(=O)N(C)C)c1ccc(OC)c2nc(NC(=O)c3ccc(F)cc3)sc12 [Example 20, N-[7-(Dimethylcarbamoylmethyl-ethyl-amino)-4-methoxy-benzothiazol-2-yl]-4-fluoro-benzamide]",61.7
13,"COc1ccc(N(C)Cc2ccccn2)c2sc(NC(=O)c3ccc(F)cc3)nc12 [Example 15, 4-Fluoro-N-[4-methoxy-7-(methyl-pyridin-2-ylmethyl-amino)-benzothiazol-2-yl]-benzamide]",61.7
14,"CCN(C(C)=O)c1ccc(OC)c2nc(NC(=O)c3ccc(F)cc3)sc12 [Example 21, N-[7-(Acetyl-ethyl-amino)-4-methoxy-benzothiazol-2-yl]-4-fluoro-benzamide]",10
15,"COCCN(C)c1ccc(OC)c2nc(NC(=O)c3ccccc3)sc12 [Example 1, N-{4-Methoxy-7-[(2-methoxy-ethyl)-methyl-amino]-benzothiazol-2-yl}-benzamide]",52.5
16,"COc1ccc(N(C)C)c2sc(NC(=O)c3ccc(F)cc3)nc12 [Example 12, N-(7-Dimethylamino-4-methoxy-benzothiazol-2-yl)-4-fluoro-benzamide]",74.1
17,"COCCN(C)c1ccc(OC)c2nc(NC(=O)c3ccc(F)cc3)sc12 [Example 2, 4-Fluoro-N-{4-methoxy-7-[(2-methoxy-ethyl)-methyl-amino]-benzothiazol-2-yl}-benzamide]",38
18,"COc1ccc(N(C)C2CCOCC2)c2sc(NC(=O)c3ccc(F)cc3)nc12 [Example 37, 4-Fluoro-N-{4-methoxy-7-[methyl-(tetrahydro-pyran-4-yl)-amino]-benzothiazol-2-yl}-benzamide]",56.2
19,"COCCN(C(C)=O)c1ccc(OC)c2nc(NC(=O)c3ccc(F)cc3)sc12 [Example 26, N-{7-[Acetyl-(2-methoxy-ethyl)-amino]-4-methoxy-benzothiazol-2-yl}-4-fluoro-benzamide]",17.8
20,"COc1ccc(N(Cc2ccccc2)C(C)=O)c2sc(NC(=O)c3ccnc(Br)c3)nc12 [Example 25, N-[7-(Acetyl-benzyl-amino)-4-methoxy-benzothiazol-2-yl]-2-bromo-isonicotinamide]",52.5
21,"COc1ccc(CN(C)c2ccc(OC)c3nc(NC(=O)c4ccnc(C)c4)sc23)cc1 [Example 30, N-{4-Methoxy-7-[(4-methoxy-benzyl)-methyl-amino]-benzothiazol-2-yl}-2-methyl-isonicotinamide]",26.3
